Tests used:
[1] = system: HepG2 cells; assay: Hepatic lipogenic key enzymes in HepG2 cells in the presence of 30 mM fructose (2 h), Example 7; type: cell-based, human; conditions: 40 μg/ml
Description: FIG. 34. Effects of different peptides and SHBG in reducing hepatic lipogenic key enzymes in the presence of 30 mM fructose. Each bar within each group represents mRNA levels of a key hepatic lipogenic enzyme, from left to right: Acetyl-CoA Carboxylase (ACC), ATP Citrate Lyase (ACLY) and Fatty Acid Synthase (FAS), and a key transcription factor regulating several lipogenic enzymes such as PPARγ (PPARγ).
(§1) Cell culture reagents were from Life Technologies Inc (Invitrogen SA, Barcelona, Spain). HepG2 hepatoblastoma cells (cat. no. HB-8065; ATCC, LGC Standards SLU, Barcelona, Spain) were maintained in Dulbecco's modified Eagle medium (DMEM) supplemented with 10% fetal bovine serum and antibiotics.
(§2) • HepG2 cells were cultured for 5 day in the absence or presence of 30 mM fructose. Cells cultured in 30 mM fructose were daily treated with vehicle, Telmisartan, Semaglutide or EDL6D. • HepG2 cells were cultured for 24 h in the absence or presence of GP6 (40 μg/ml), GP10 (40 μg/ml), GP11 (40 μg/ml), GP12 (40 μg/ml), GP13 (40 μg/ml) or SHBG (20 nM). • HepG2 cells were cultured in the absence or presence of 30 mM fructose and treated for 2 h with vehicle or GP4 (40 μg/ml), GP6 (40 μg/ml), GP7 (40 μg/ml), GP8 (40 μg/ml), GP9 (40 μg/ml), GP10 (40 μg/ml), GP11 (40 μg/ml), GP12 (40 μg/ml), GP13 (40 μg/ml) or SHBG (20 nM).
(§3) Total RNA was extracted from HepG2 and LX-2 cells using TRIzol reagent (Invitrogen SA). Reverse transcription was performed at 42° C. for 50 minutes using […] of total RNA, 200 U of Superscript II, and an oligo-dT primer and reagents provided by Invitrogen. An aliquot of the reverse transcription product was amplified in a […] reaction using SYBRGreen (Invitrogen SA) with appropriate oligonucleotide primer pairs corresponding to human SHBG, ACC, FAS, ACLY, PPARG, and 18S and mouse ACC, FAS, ACLY, PPARG, Col1A1 and 18S. Results were analyzed using the 7000 Sequence Detection System program (Applied Biosystems, Thermo Fisher Scientific, Barcelona, Spain) (Shez-Lopez et al Endocrinology 2017).

[2] = system: HepG2 cells; assay: Hepatic lipogenesis gene expression (ACC, FAS, ACLY mRNA by RTPCR) in HepG2 cells, Example 2; type: cell-based, human; conditions: 10 μM, 24 h, relative to 18S
Description: FIG. 5 Human hepatoblastoma cell line HepG2 was treated with vehicle (DMSO) or 10 μM of GP4, GP7, GP8 or GP9 for 24 h. RNA was extracted and mRNA levels of Acetyl-CoA Carboxylase (ACC), Fatty Acid Synthase (FAS) and ATP-Citrate Lyase (ACLY) relative to 18S were measured by RTPCR.
Cell culture reagents were from Life Technologies Inc (Invitrogen SA, Barcelona, Spain). HepG2 hepatoblastoma cells (cat. no. HB-8065; ATCC, LGC Standards SLU, Barcelona, Spain) were maintained in Dulbecco's modified Eagle medium (DMEM) supplemented with 10% fetal bovine serum and antibiotics. HepG2 cells were treated with vehicle or 10 μM of GP4, GP7, GP8 and GP9 for 24 h. LX-2 human hepatic stellate cells (SCC064) were maintained in DMEM supplemented with 2% fetal bovine serum and antibiotics. For experiments, LX-2 were cultured for 24 h in DMEM 0.2% FBS and treated for 24 h with vehicle or TGFβ1 (20 ng/ml) in the absence or presence of 8 μM of GP4, GP7, GP8 and GP9 for 24 h. At the end of the experiment's cells were harvested for gene expression analysis.
as §3, with “human” for “human SHBG,”, “Col1A1” for “PPARG,”, “(shown in table 7).” for “and mouse ACC, FAS, ACLY, PPARG, Col1A1 and 18S.”, “(Sex Hormone-Binding Globulin Reduction in Metabolic Disorders May Play a Role in NAFLD Development.Saez-Lopez C, Barbosa-Desongles A, Hernandez C, Dyer R A, Innis S M, Simo R, Selva D M. Endocrinology. 2017 Mar. 1; 158(3):545-559. doi: 10.1210/en.2016-1668).” for “(Shez-Lopez et al Endocrinology 2017).”

[3] = system: obesity and fatty liver disease mouse model; assay: Therapeutic effects in an obesity and fatty liver disease mouse model, Example 6; type: in vivo, C57BL6/J male mice; conditions: Telmisartan 5 mg/kg/day in drinking water, 10 weeks
Description: C57BL6/J male mice were purchased and kept for quarantine and acclimatization for a period of about 7 days before initiation of every experiment. Mice were housed in clean and sterilized mice cages and maintained in a controlled environment with 22+3° C. temperature, 50+20% humidity, a light/dark cycle of 12 hours each and 15-20 fresh air changes per hour.
For Obesity and NAFLD induction, the animals were fed ad libitum, either with chow diet (150SP-10, Safe Diets) or 45% high-fat diet (TD.190179, Envigo) plus 30% fructose (F0127, Sigma Aldrich) in drinking water for 20 weeks. The therapeutic effect of a daily subcutaneous injection of GP6 (20 mg/kg/day) in this mouse model was assessed for 10 weeks, starting the treatment on week 10 of the experiment until week 20.
A group of control mice (n=10) was fed with control diet and regular drinking water and a group of mice (n=30) obesity and fatty liver disease was induced for 10 weeks. At this point, mice were randomly divided in three groups of n=10, the first group was treated with daily subcutaneous injections of vehicle (water), the second group was treated with Telmisartan (5 mg/kg/day) in the drinking water and a subcutaneous injection of vehicle, and the third group with daily subcutaneous injection of GP6 (20 mg/kg/day) during 10 weeks.
At the end of the experiment mice were sacrificed, serum samples were extracted, tissues were weighted and part was fixed in paraformaldehyde for histology studies and part immediately frozen at −80 C for mRNA and protein expression studies as well as assessment of triglycerides.
The histology studies, AST and ALT measurements, TG measurements, and the RNA analysis were performed as described in Example 4.

[4] = system: HepG2 cells; assay: Hepatic lipogenesis gene expression in HepG2 cells (24 h), Example 7; type: cell-based, human; conditions: 40 μg/ml, vs vehicle
Excerpt: FIG. 32. Effect of GP6 and modified peptides on hepatic lipogenesis in HepG2 cells. Each bar within each group represents mRNA levels of a key hepatic lipogenic enzyme, from left to right: Acetyl-CoA Carboxylase (ACC), ATP Citrate Lyase (ACLY) and Fatty Acid Synthase (FAS), and a key transcription factor regulating several lipogenic enzymes such as PPARγ (PPARγ).
as §1, §2, §3

[5] = system: human mature adipocytes; assay: Lipolysis in human mature adipocytes (glycerol production), Example 2; type: cell-based; conditions: 10 μM, 16 h, with respect to control cells
Description: FIG. 7. Mature human subcutaneous adipocytes were treated with vehicle (DMSO), 3 μM of Isoproterenol or 10 μM of GP4, GP8 or GP9 for 16 h. Glycerol concentration was assessed using a Lipolysis Assay Kit (Tebu-bio). Lipolysis induction was calculated with respect to the control cells treated with DMSO.
Human preadipocytes and cell culture reagents were from purchased from Tebu-Bio (Tebu-bio, Barcelona, Spain) and differentiation protocol was done following the manufacturer's instructions. Human adipocytes were maintained in a humidified incubator with 5% CO2 at 37° C. (Sex hormone-binding globulin overexpression protects against high-fat diet-induced obesity in transgenic male mice. Saez-Lopez C, Villena J A, Simo R, Selva D M. J Nutr Biochem. 2020 November; 85:108480. doi: 10.1016/j.jnutbio.2020.108480).
Lipolysis assays were performed using a Lipolysis Kit (Tebu-Bio) following the manufacturer's instructions as previously described.

Compound | fructose-induced expression of ACC [1] | fructose-induced expression of ACLY [1] | fructose-induced expression of FAS [1] | fructose-induced expression of PPARγ [1] | ATP-Citrate Lyase (ACLY) mRNA levels [2] | Acetyl-CoA Carboxylase (ACC) mRNA levels [2] | Fatty Acid Synthase (FAS) mRNA levels [2] | liver triglyceride (TAG) content [3] | liver weight [3] | Total body weight versus control mice ([3]; vs control diet mice) | serum glucose levels ([3]; vs vehicle) | ACC mRNA levels [4] | ACLY mRNA levels [4] | FAS mRNA levels [4] | PPARγ mRNA levels [4] | increase of glycerol production (lipolysis) [5] [%]
CC[C@@H](C)[C@@H](NC(=O)[C@H](NC(=O)CNC(=O)[C@@H](CCC(=O)O)NC(=O)[C@H]1CCCN1C(=O)[C@@H](CC(=O)O)NC(=O)[C@@H](Cc1c[nH]c2ccccc12)NC(=O)[C@H](N)[C@H](C)O)C(C)C)C(=O)N[C@H](Cc1ccccc1)C(=O)N[C@H](Cc1ccc(O)cc1)C(=O)NCC(=O)N[C@H](CC(=O)O)C(=O)N[C@@H](C(=O)N[C@H](CC(N)=O)C(=O)N1CCC[C@@H]1C(=O)N[C@H](CCCCN)C(=O)N[C@H](CC(=O)O)C(=O)N[C@H](CC(=O)O)C(=O)N[C@H](Cc1c[nH]c2ccccc12)C(=O)N[C@H](Cc1ccccc1)C(=O)O)[C@H](C)O [GP7] | able to reduce the expression of ACC and ACLY more effectively than SHBG | able to reduce the expression of ACC and ACLY more effectively than SHBG | had no effect on FAS and PPARγ expression | had no effect on FAS and PPARγ expression | reduced | reduced | increased | – | – | – | – | – | – | – | – | –
CCCc1nc2c(C)cc(-c3nc4ccccc4n3C)cc2n1Cc1ccc(-c2ccccc2C(=O)O)cc1 [Telmisartan, reference compound] | – | – | – | – | – | – | – | failed to decrease TAG liver content | did not reduced significantly | significantly increased | did not have any effect | – | – | – | – | –
TKTSASFEVRTWDPEGVIFYADTNPKDDWF [GP13] | able to reduce the expression of ACC and ACLY more effectively than SHBG | able to reduce the expression of ACC and ACLY more effectively than SHBG | had no effect on FAS | increased PPARγ expression | – | – | – | – | – | – | – | able to reduce | no ACLY and PPARγ | able to reduce | no ACLY and PPARγ | –
ATKTSASFEVRTWDPEAVIFY [GP10] | able to reduce | able to reduce | able to reduce | able to reduce | – | – | – | – | – | – | – | reduced the mRNA levels | reduced the mRNA levels | reduced the mRNA levels | reduced the mRNA levels | –
TKTASAFEVRTWDPEGVIFYGDTNPKDDWF [GP11] | able to reduce | able to reduce | able to reduce | able to reduce | – | – | – | – | – | – | – | reduced the mRNA levels | reduced the mRNA levels | reduced the mRNA levels | reduced the mRNA levels | –
CC[C@@H](C)[C@@H](NC(=O)[C@@H](CCCCN)NC(=O)[C@H](NC(=O)[C@@H](CC(C)C)NC(=O)[C@@H](CC(=O)O)NC(=O)[C@@H](Cc1ccccc1)NC(=O)[C@H](NC(=O)[C@@H](CCSC)NC(=O)[C@H](N)C(C)C)[C@H](C)O)[C@H](C)O)C(=O)N[C@@H](C(=O)N[C@H](CCCCN)C(=O)N[C@@H](C(=O)N[C@H](CO)C(=O)N[C@H](CO)C(=O)N[C@H](CO)C(=O)N[C@H](Cc1ccccc1)C(=O)N[C@H](CCC(=O)O)C(=O)N[C@@H](C(=O)N[C@H](CCCNC(=N)N)C(=O)N[C@@H](C(=O)N[C@H](Cc1c[nH]c2ccccc12)C(=O)N[C@H](CC(=O)O)C(=O)N1CCC[C@@H]1C(=O)N[C@H](CCC(=O)O)C(=O)NCC(=O)N[C@@H](C(=O)N[C@@H](C(=O)N[C@H](Cc1ccccc1)C(=O)N[C@H](Cc1ccc(O)cc1)C(=O)O)[C@H](C)CC)C(C)C)[C@H](C)O)C(C)C)[C@H](C)O)[C@H](C)O [GP4] | able to reduce | able to reduce | able to reduce | able to reduce | did not alter | reduced | increased | – | – | – | – | – | – | – | – | 500
TKTASAFEVRTWDPEGVIFY [GP12] | able to reduce | able to reduce | able to reduce | able to reduce | – | – | – | – | – | – | – | reduced all key lipogenic genes except FAS | reduced all key lipogenic genes except FAS | – | reduced all key lipogenic genes except FAS | –

From US20260297136A1, “PEPTIDES WITH LIPOLYTIC, ANTI-LIPOGENIC, ANTIFIBROTIC AND ANTI-INFLAMMATORY ACTIVITY” (FUNDACIÓ HOSPITAL UNIVERSITARI VALL D'HEBRON - INSTITUT DE …, priority 2023, published 2026)
